Assay results taken from patent publication US6440997B2, “−E-2-(3,4-dichlorocinnamyl)-1-cyclopropylmethylpiperidine, and its antidiarrhoeal use” (Warner-Lambert Company, priority 1997, dated 2002).

How the values were obtained:
[1] = system: diarrhoea induced by the thermostable toxin of E. coli; experiment: Diarrhoea induced by the thermostable toxin of E. coli in mice; type: in vivo; conditions: Escherichia coli, po, p.o. 1 h before toxin 600 U/mouse p.o., faecal water at 120 min, read-out: Inhibitory activity ED50, E. coli toxin diarrhoea
Procedure: (§1) b)—diarrhoea induced by the thermostable toxin of E. coli: Nourished male NMRI mice (30-35 g) are weighed and placed in individual cages previously covered with white paper allowing the viewing of the faecal matter voided. The faeces are recovered as soon as voided and are brought together, by periods of 30 min, for 120 min. The faeces thus brought together are weighed before (fresh weight) and after (dry weight) drying at 120° C. for 24 h. The quantity of water present in the faeces is calculated as the difference (fresh weight—dry weight). The thermostable toxin of Escherichia coli (Sigma, E5763) is administered by the oral route at time zero at a dose of 600 U/mouse. The animals of the control batch receive, at time zero, an oral administration of saline. The administration of the test products is carried out by the oral route 1 h before the administration of the toxins.

[2] = system: diarrhoea induced by the A and B toxins of C. difficile; experiment: Diarrhoea induced by the A and B toxins of C. difficile in mice; type: in vivo; conditions: Clostridioides difficile, po, p.o. 1 h before A and B toxins 6 ng/mouse p.o., faecal water at 120 min, read-out: Inhibitory activity ED50, C. difficile toxins diarrhoea
Procedure: as §1
c)—diarrhoea induced by the A and B toxins of C. difficile: the experimental protocol, the calculation and the expression of the results are identical to those described above. The A and B toxins of C. difficile are administered by the oral route at time zero at a dose of 6 ng/mouse.

[3] = system: intestinal secretion induced by cholera toxin; experiment: animal or person; type: in vivo, rats; conditions: for ED50: Rattus norvegicus, read-out: Inhibition of intestinal secretion induced by cholera toxin: ED50
[4] = Toxicity study in mice by the oral route; type: in vivo
Procedure: In animals, the toxicity study was carried out in mice by the oral route. No mortality was noted up to the strongest dose studied, namely 300 mg/kg. No toxic symptoms were evident at doses lower than 100 mg/kg. Starting from this dose, symptoms were observed such as respiratory depression, trembling, convulsions, a state of prostration or of lethargy which were reversible in a lapse of time of 24 hours after treatment.

transit = experiment: Effect on the transit; type: in vivo; conditions: oral route, mice
[5] = system: diarrhoea induced by Salmonella lipopolysaccharide (LPS); experiment: Diarrhoea induced by Salmonella lipopolysaccharide (LPS) in mice; conditions: for ED50: Salmonella, in Mus musculus, read-out: Inhibitory activity ED50, Salmonella LPS diarrhoea; for Inhibition of diarrhoea (%): Salmonella LPS
sigma receptors = sigma receptors (Rattus norvegicus, UniProt Q9R0C9); experiment: Affinity for sigma receptors: displacement of (+)[3H]-SKF 10,047 from rat brain membrane preparation; conditions: σ affinity: IC50, displacement of (+)[3H]-SKF 10,047, rat brain membrane preparation
sigma receptors, sequence (Q9R0C9 whole entry): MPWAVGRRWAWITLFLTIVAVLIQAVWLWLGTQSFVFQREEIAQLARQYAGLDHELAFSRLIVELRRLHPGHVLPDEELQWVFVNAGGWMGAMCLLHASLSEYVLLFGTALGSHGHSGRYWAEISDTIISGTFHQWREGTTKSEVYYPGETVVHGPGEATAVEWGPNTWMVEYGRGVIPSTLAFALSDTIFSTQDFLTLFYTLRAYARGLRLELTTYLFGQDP

[6] = system: inflammatory diarrhoea caused by PGE2; conditions: cited from earlier work

Which ED50 [1] does the source give for `Clc1ccc(/C=C/CC2CCCCN2CC2CC2)cc1Cl` (single isomer, unassigned; (-)) [eutomer (I), (−)E-2-(3,4-dichlorocinnamyl)-1-cyclopropylmethylpiperidine] here?
The ED50 was 0.019 mg/kg.

What about the ED50 [2] of the same molecule?
Its ED50 is < 0.001 mg/kg.

And the ED50 [3]?
The ED50 was 0.038 mg/kg.

And the “times more active than the racemate” value ([3]; rat, in vivo, po)?
Its value is ~50 times.

What about the “Dose up to which no mortality was noted (strongest dose studied)” value [4] of the same molecule?
Its value is ≥ 300 mg/kg.

What about the “Dose from which toxic symptoms were observed (none at lower doses)” value ([4]; respiratory depression, trembling, convulsions, prostration or lethargy, reversible in 24 hours) of the same molecule?
Its value is ≥ 100 mg/kg.

And the “Action on the transit” value (transit)?
Its value is “without acting on the transit”.

What about the ED50 [5] of the same molecule?
The ED50 was 0.0056 mg/kg.

What about the “Inhibition of diarrhoea (%)” value ([5]; dose 0.003 mg/kg p.o., mice, listed as compound of the invention, 0.003 mg/kg) of the same molecule?
The value was 46.1%.

And the “Inhibition of diarrhoea (%)” value ([5]; dose 0.01 mg/kg p.o., mice)?
Its value is 59.7%.

What about the “Inhibition of diarrhoea (%)” value ([5]; dose 0.03 mg/kg p.o., mice) of the same molecule?
Its value is 59.5%.

And the “Inhibition of diarrhoea (%)” value ([5]; dose 0.1 mg/kg p.o., mice)?
The value was 69.5%.

And the “times more active than acetorphan” value ([5]; oral route, mice, diarrhoea caused by LPS)?
The value was “more than 6000 times”.

And the IC50 (sigma receptors)?
Its IC50 is 17.9 nM.

Which ED50 [5] does the source give for `C(=C\c1ccccc1)/CC1CCCN1CC1CC1` (single isomer, unassigned; (-)) [Ex. 1.3, (−)E-2-cinnamyl-1-cyclopropylmethylpyrrolidine] here?
Its ED50 is 0.002 mg/kg.

What about the “Inhibition of diarrhoea (%)” value ([5]; dose 0.003 mg/kg p.o., mice, 0.003 mg/kg) of the same molecule?
Its value is 63.8%.

What about the “Inhibition of diarrhoea (%)” value ([5]; dose 0.01 mg/kg p.o., mice) of the same molecule?
Its value is 78.8%.

And the “Inhibition of diarrhoea (%)” value ([5]; dose 0.03 mg/kg p.o., mice, 0.03 mg/kg)?
The value was 46.7%.

What does the source list for `CCC(C/C=C/c1ccccc1)(c1ccccc1)N(C)CC1CC1` (single isomer, unassigned; (+)) [igmesine, (+)-N-cyclopropylmethyl-N-methyldiphenyl-1,4-ethyl-1-buten-3-yl-1-amine]?
ED50 [1]: 1.72 mg/kg; ED50 [2]: 1.45 mg/kg; Delay of the appearance of the diarrhoea ([6]; 30 mg/kg i.p., co-administered with PGE2, mice): approximately 15 min; Inhibitory effect on PGE2 diarrhoea by the oral route ([6]; 60 mg/kg oral route, mice): zero; ED50 [5]: 0.42 mg/kg

What does the source list for `CN(C)C(=O)C(CCN1CCC(O)(c2ccc(Cl)cc2)CC1)(c1ccccc1)c1ccccc1` [loperamide]?
ED50 [1]: 3.92 mg/kg; ED50 [2]: 4.27 mg/kg; ED50 [5]: 0.37 mg/kg

What does the source list for `C(=C\c1ccccc1)/CC1CCCCN1CC1CC1` (single isomer, unassigned; (-)) [Ex. 2A.3, (−)E-2-cinnamyl-1-cyclopropylmethyl-piperidine]?
Inhibition of diarrhoea (%) ([5]; dose 0.00003 mg/kg p.o., mice, 3e-05 mg/kg): 45%; Inhibition of diarrhoea (%) ([5]; dose 0.0001 mg/kg p.o., mice): 65.8%; Inhibition of diarrhoea (%) ([5]; dose 0.001 mg/kg p.o., mice, 0.001 mg/kg): 36.8%

Which IC50 (sigma receptors) does the source give for `Clc1ccc(/C=C/CC2CCCCN2CC2CC2)cc1Cl` (single isomer, unassigned; (+)) [(+)E-2-(3,4-dichlorocinnamyl)-1-cyclopropylmethylpiperidine] here?
Its IC50 is 21.8 nM.

For `CC(=O)SCC(Cc1ccccc1)C(=O)NCC(=O)OCc1ccccc1` (stereo not drawn) [acetorphan], which ED50 [5] is on record?
The ED50 was 34 mg/kg.

For `Clc1ccc(C=CCC2CCCCN2CC2CC2)cc1Cl` (racemic) [(+/−) parent racemate, racemic E-2-(3,4-dichlorocinnamyl)-1-cyclopropylmethylpiperidine], which ED50 [1] is on record?
Its ED50 is 0.077 mg/kg.

And the ED50 [2]?
Its ED50 is 0.058 mg/kg.

What about the ED50 [3] of the same molecule?
The ED50 was 1.9 mg/kg.

And the ED50 [5]?
Its ED50 is 0.038 mg/kg.

What about the IC50 (sigma receptors) of the same molecule?
Its IC50 is 44.1 nM.
